For 7 compounds, pest or weed control results are on record in US8680339B2, “Herbicides” (Syngenta Limited, priority 2009, dated 2014).

What all share (format): in vivo
Experiment [1] relates to Alopecurus myosuroides (ALOMY). Nature of the experiment: Pre-emergence herbicidal activity, glasshouse pot test. Conditions: Alopecurus myosuroides, 312 h, rate 250 g/ha, evaluated after 13 days, 100=total damage to plant, 0=no damage to plant. How it is done:
(§1) Seeds of a variety of test species were sown in standard soil in pots. After cultivation for one day (pre-emergence) or after 8 days cultivation (post-emergence) under controlled conditions in a glasshouse (at 24/16° C., day/night; 14 hours light; 65% humidity), the plants were sprayed with an aqueous spray solution derived from the formulation of the technical active ingredient in acetone/water (50:50) solution containing 0.5% Tween 20 (polyoxyethelyene sorbitan monolaurate, CAS RN 9005-64-5). The test plants were then grown in a glasshouse under controlled conditions in a glasshouse (at 24/16° C., day/night; 14 hours light; 65% humidity) and watered twice daily. After 13 days for pre and post-emergence, the test was evaluated (100=total damage to plant; 0=no damage to plant). Test Plants: Lolium perenne (LOLPE), Alopecurus myosuroides (ALOMY), Echinochloa crus-galli (ECHCG), and Avena fatua (AVEFA). Pre-Emergence Activity

The test system of experiment [2] is Avena fatua (AVEFA). The description is as above. Conditions: Avena fatua, 312 h, rate 250 g/ha, evaluated after 13 days, 100=total damage to plant, 0=no damage to plant. Here is the method: as §1
For experiment [3], the system named is Echinochloa crus-galli (ECHCG). The experiment is described as above. The note with it: Echinochloa crus-galli, 312 h, rate 250 g/ha, evaluated after 13 days, 100=total damage to plant, 0=no damage to plant. Here is the method: as §1
The subject of experiment [4] is Lolium perenne (LOLPE). The experiment is described as above. The note with it: Lolium perenne, 312 h, rate 250 g/ha, evaluated after 13 days, 100=total damage to plant, 0=no damage to plant. Here is the method: as §1
Experiment [5] concerns Alopecurus myosuroides (ALOMY). Kind of experiment: Post-emergence herbicidal activity, glasshouse pot test. The note with it: Alopecurus myosuroides, 312 h, rate 250 g/ha, evaluated after 13 days, 100=total damage to plant, 0=no damage to plant. How it is done: as §1, with “Post-Emergence” for “Pre-Emergence”
Experiment [6] concerns Avena fatua (AVEFA). The description is as above. Conditions: Avena fatua, 312 h, rate 250 g/ha, evaluated after 13 days, 100=total damage to plant, 0=no damage to plant. Here is the method:
as §1, with “Post-Emergence” for “Pre-Emergence”

In experiment [7] the test system is Echinochloa crus-galli (ECHCG). The description is as above. The note with it: Echinochloa crus-galli, 312 h, rate 250 g/ha, evaluated after 13 days, 100=total damage to plant, 0=no damage to plant. Here is the method: as §1, with “Post-Emergence” for “Pre-Emergence”
For experiment [8], the system named is Lolium perenne (LOLPE). The description is as above. The note with it: Lolium perenne, 312 h, rate 250 g/ha, evaluated after 13 days, 100=total damage to plant, 0=no damage to plant. How it is done: as §1, with “Post-Emergence” for “Pre-Emergence”

For `CCc1cc(Oc2ccc(Br)cc2F)ccc1C1=C(O)[C@H]2[C@@H](C1=O)[C@@H]1CC[C@H]2O1` [Compound A-1], the pest or weed control at 250 g/ha in experiment [1] was determined as 20%; in experiment [2], 0%; in experiment [3], 30%; in experiment [4], 20%; in experiment [5], 70%; in experiment [6] it was 80%. In addition, the pest or weed control at 250 g/ha in experiment [7] was 100%; in experiment [8], 70%.
Consider `CCc1cc(Oc2ccc(Cl)cc2)ccc1C1=C(O)[C@H]2[C@@H](C1=O)[C@@H]1CC[C@H]2O1` [Compound A-2], for which the pest or weed control at 250 g/ha was 30% in experiment [1]; 0% in experiment [2]; 30% in experiment [3]; 60% in experiment [4]; 90% in experiment [5]; 90% in experiment [6]. Further, the results for the pest or weed control at 250 g/ha in experiment [7] and in experiment [8] were 100% and 80%, respectively.
Take `Cc1cc(Oc2ccc(Br)cc2F)cc(C)c1C1=C(O)[C@H]2[C@@H](C1=O)[C@@H]1CC[C@H]2O1` [Compound A-3, meso-(1R,2S,6R,7S)-4-(4-[4-bromo-2-fluorophenoxy]-2,6-dimethylphenyl)-10-oxatricyclo[5.2.1.0^2,6]decane-3,5-dione]: the pest or weed control at 250 g/ha amounted to 80% in experiment [1]; 30% in experiment [2]; 90% in experiment [3]; 80% in experiment [4]; 100% in experiment [5]; 90% in experiment [6]. Further, the pest or weed control at 250 g/ha worked out at 100% in experiment [7] and 90% in experiment [8].
In the case of `Cc1cc(Oc2ccc(Cl)cc2)cc(C)c1C1=C(O)[C@H]2[C@@H](C1=O)[C@@H]1CC[C@H]2O1` [Compound A-4], the pest or weed control at 250 g/ha in experiment [1] amounted to 100%; in experiment [2], 70%; in experiment [3], 90%; in experiment [4] it was 80%; in experiment [5], 100%; in experiment [6], 90%. The pest or weed control at 250 g/ha in experiment [7] and in experiment [8] was 100% each time.
For the compound `Cc1cc(Oc2ccccc2F)cc(C)c1C1=C(O)[C@H]2[C@@H](C1=O)[C@@H]1CC[C@H]2O1` [Compound A-5], the pest or weed control at 250 g/ha in experiment [1] is 40%; in experiment [2], 30%; in experiment [3] it was 60%; in experiment [4], 50%; in experiment [5], 60%; in experiment [6], 50%. Further, the pest or weed control at 250 g/ha in experiment [7] came to 90%; in experiment [8], 70%.
Regarding `Cc1cc(Oc2ccc(F)cc2F)cc(C)c1C1=C(O)[C@H]2[C@@H](C1=O)[C@@H]1CC[C@H]2O1` [Compound A-6], the pest or weed control at 250 g/ha in experiment [1] stood at 70%; in experiment [2], 30%; in experiment [3], 70%; in experiment [4] it was 80%; in experiment [5] it was 90%; in experiment [6], 70%. The values for the pest or weed control at 250 g/ha in experiment [7] and in experiment [8] were 90% and 70%, respectively.
`Cc1cc(Oc2ccc(Cl)cc2F)cc(C)c1C1=C(O)[C@H]2[C@@H](C1=O)[C@@H]1CC[C@H]2O1` [Compound A-7]: the pest or weed control at 250 g/ha stood at 70% in experiment [1]; 90% in experiment [2]; 100% in experiment [3]; 90% in experiment [4]; 100% in experiment [5]; 90% in experiment [6]. The pest or weed control at 250 g/ha in experiment [7] and in experiment [8] was 100% throughout.
